Data from article PMC6196238, “Novobiocin, a Newly Found TRPV1 Inhibitor, Attenuates the Expression of TRPV1 in Rat Intestine and Intestinal Epithelial Cell Line IEC-6” (Frontiers in Pharmacology, 2018).

Tested on: TRPV1
Experiment: TRPV1 mRNA and protein expression in rat intestine after oral administration (qRT-PCR, western blot)
Type: in vivo
Description: Forty male SD rats (200–250 g) were used for orally administered experiment. The animals were arbitrarily distributed in eight different groups and each group was treated with its respective dose of calculated amount. Group I was orally administered 0.9% normal saline (5 mL⋅kg^-1). Group II labeled as positive control was orally administered with 10 μM RR (5 mL⋅kg^-1). Rats of Group […] were treated with 5 mL⋅kg^-1 of NOVO dissolved in 0.9% normal saline (5, 10, 25, and 50 μM, respectively). The animals were orally administered twice a day for 2 weeks. After another 14 days, animals were sacrificed and then the jejunum, ileum and colon tissue were excised. The intestinal tissues were frozen in liquid nitrogen, and then stored at -80°C for protein or ribonucleic acid (RNA) isolation.
qRT-PCR was performed to evaluate TRPV1 mRNA expression after NOVO treatment. The total RNA of the cells or tissues was isolated with an RNA isolation plus kit (Takara Shuzo, Kyoto, Japan), according to the manufacturer’s protocol. The quality of RNA was confirmed by agarose gel electrophoresis and an optical density measurement of A260/A280. The cDNAs were prepared using SYBR® Premix Ex Taq^TMII (Takara Shuzo, Kyoto, Japan) and the following primers: 5′-[…]-3′ and 5′-[…]-3′ for TRPV1, and 5′-[…]-3′, 5′-[…]-3′ for GAPDH were carried out by using the LightCycler480 System. The relative expression was calculated by the 2^-ΔΔC(t) method ([Livak and Schmittgen, 2001]).
After treatment, the cells or tissues were collected and washed with PBS. Membrane protein extracts were obtained with Membrane Protein Extraction Kit (Thermo Fisher Scientific Inc, United States), according to the manufacturer’s protocol. Protein concentrations were quantified by using the BCA Protein Assay kit (Beyotime, Shanghai, China). Equal amounts of protein were resolved by SDS-PAGE on a 10% polyacrylamide gel and transferred onto a polyvinylidene fluoride membrane. […]

CO[C@@H]1[C@@H](OC(N)=O)[C@@H](O)[C@H](Oc2ccc3c(O)c(NC(=O)c4ccc(O)c(CC=C(C)C)c4)c(=O)oc3c2C)OC1(C)C [NOVO, novobiocin]
TRPV1 protein expression in rat intestine (5 μM NOVO p.o., western blot): not sufficient to attenuate TRPV1 protein expression | TRPV1 mRNA level in rat intestine (14 days p.o. NOVO 5-50 μM twice per day, jejunum, ileum, colon, Figure 2D): decreased markedly | TRPV1 protein level in rat intestine (14 days p.o. NOVO twice per day, western blot, Figure 2E): decreased the TRPV1 protein level in a dose-dependent manner
